We go through 25 compounds from PubChem BioAssay AID330 (DTP/NCI, 2004).

This assay deals with P388 leukemia ip, CD2F1 mice, survival T/C. The experiment in a line: NCI In Vivo Anticancer Drug Screen. Data for tumor model P388 Leukemia (intraperitoneal) in CD2F1 (CDF1) mice. Conditions: endpoint: median survival time, higher = longer survival. In outline: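 Mice carrying the transplanted tumor received test compound or vehicle. Survival was recorded in each group, and the value is the treated-group measurement divided by that of the vehicle-treated control group.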

Where [1] appears, read: dose: 25.0 mg/kg/injection, schedule: Q01DX001 (ip), vehicle: saline with Tween-80.
Where [2] appears, read: dose: 50.0 mg/kg/injection, schedule: Q01DX001 (ip), vehicle: saline with Tween-80.
[3] abbreviates: dose: 100.0 mg/kg/injection, schedule: Q01DX001 (ip), vehicle: saline with Tween-80.
The mark [4] stands for this setting: dose: 50.0 mg/kg/injection, schedule: Q04DX003 (ip), vehicle: saline with Tween-80.
The mark [5] stands for this setting: dose: 60.0 mg/kg/injection, schedule: Q01DX005 (ip), vehicle: saline with Tween-80.
Where [6] appears, read: dose: 120.0 mg/kg/injection, schedule: Q01DX005 (ip), vehicle: saline with Tween-80.
The mark [7] stands for this setting: dose: 240.0 mg/kg/injection, schedule: Q01DX005 (ip), vehicle: saline with Tween-80.
The mark [8] stands for this setting: dose: 6.25 mg/kg/injection, schedule: Q01DX009 (ip), vehicle: saline with Tween-80.
The mark [9] stands for this setting: dose: 12.5 mg/kg/injection, schedule: Q01DX009 (ip), vehicle: saline with Tween-80.
The mark [10] stands for this setting: dose: 50.0 mg/kg/injection, schedule: Q01DX005 (ip), vehicle: Klucel (hydroxypropylcellulose) (HPC).
Setting [11] is: dose: 100.0 mg/kg/injection, schedule: Q01DX005 (ip), vehicle: Klucel (hydroxypropylcellulose) (HPC).
Where [12] appears, read: dose: 200.0 mg/kg/injection, schedule: Q01DX005 (ip), vehicle: Klucel (hydroxypropylcellulose) (HPC).
The mark [13] stands for this setting: dose: 25.0 mg/kg/injection, schedule: Q01DX009 (ip), vehicle: saline with Tween-80.
Where [14] appears, read: dose: 50.0 mg/kg/injection, schedule: Q01DX009 (ip), vehicle: saline with Tween-80.

The structures appear in SMILES notation. Values joined by “and” are separate entries in the source; they are usually repeats but may differ in a detail not shown here. Identical values can stand only once. Inconclusive results and toxic doses are left out. Peptide text beside a SMILES is read from it.

Consider `COC(=O)C(=O)C(C(=O)c1ccncc1)c1nc2n(c1O)C(=N)N=N2` (centres undefined), for which the T/C (dose: 50.0 mg/kg/injection, schedule: Q01DX005 (ip), vehicle: saline) is 97 % of control; the T/C (dose: 100.0 mg/kg/injection, schedule: Q01DX005 (ip), vehicle: saline) was 97 % of control; the T/C (dose: 200.0 mg/kg/injection, schedule: Q01DX005 (ip), vehicle: saline) is 100 % of control.

Take `O=[N+]([O-])c1ccc(-c2csc(=[N+]3CCCCC3)s2)cc1`: the T/C reads like this: (dose: 6.25 mg/kg/injection, schedule: Q01DX009 (ip), vehicle: water) 106 % of control and 114 % of control; (dose: 12.5 mg/kg/injection, schedule: Q01DX009 (ip), vehicle: water) 114 % of control.

On to `Cc1c([O-])[n+](Cc2ccccc2)nn1C`, for which the T/C (dose: 25.0 mg/kg/injection, schedule: Q01DX009 (ip), vehicle: water) is 89 % of control.

Take `C=C1[C@@H](NC)CC[C@]23C[C@]24CC[C@]2(C)[C@@H]([C@H](C)NC)[C@H](O)C[C@@]2(C)[C@@H]4CC[C@@H]13`: the T/C runs as follows: under setting [1], 104 % of control; under setting [2], 99 % of control; under setting [3], 104 % of control.

In the case of `CCOC(=O)N1CCc2cc(OC)c(O)cc2C1CC1=CC(=O)C(OC)=CC1=O` (centres undefined), the T/C runs as follows: (dose: 100.0 mg/kg/injection, schedule: Q04DX002 (ip), vehicle: saline with Tween-80) 102 % of control; (dose: 200.0 mg/kg/injection, schedule: Q04DX002 (ip), vehicle: saline with Tween-80) 100 % of control; (dose: 400.0 mg/kg/injection, schedule: Q04DX002 (ip), vehicle: saline with Tween-80) 97 % of control.

`COc1cc2c(c(OC)c1OC)-c1ccc(OC)c(=O)cc1[C@@H](N(C)C(=O)C(F)(F)F)CC2`: for the setting “dose: 1.25 mg/kg/injection, schedule: Q01DX009 (ip), vehicle: Klucel (hydroxypropylcellulose) (HPC)”, the T/C is 154 % of control and 163 % of control.

Take `ONc1ncnc2nc[nH]c12`: the T/C under setting [4] is 122 % of control and the T/C (dose: 200.0 mg/kg/injection, schedule: Q04DX003 (ip), vehicle: saline sonified) was 120 % of control.

As for `Cc1ccc2c(c1)CN(C)c1ccc(C)cc1CN2C`, the T/C by setting is: under setting [5], 98 % of control; under setting [6], 100 % of control; under setting [7], 98 % of control.

As for `Ic1ccc([I+]c2ccc(I)cc2)cc1`, the T/C was 100 % of control under setting [1]; 99 % of control under setting [2]; 95 % of control under setting [3]; 100 % of control (dose: 200.0 mg/kg/injection, schedule: Q01DX001 (ip), vehicle: saline with Tween-80); 100 % of control (dose: 400.0 mg/kg/injection, schedule: Q01DX001 (ip), vehicle: saline with Tween-80).

In the case of `C#CCNC(=S)N/N=C(\C)c1ccccn1`, the T/C is 97 % of control (dose: 3.13 mg/kg/injection, schedule: Q01DX009 (ip), vehicle: saline with Tween-80); 97 % of control under setting [8]; 103 % of control under setting [9].

Turning to `CCC1(CC(=O)O)OCCc2c1[nH]c1c(C)c(F)ccc21` (centres undefined), the T/C by setting is: (dose: 50.0 mg/kg/injection, schedule: Q01DX009 (ip), vehicle: Klucel (hydroxypropylcellulose) (HPC)) 95 % of control; (dose: 100.0 mg/kg/injection, schedule: Q01DX009 (ip), vehicle: Klucel (hydroxypropylcellulose) (HPC)) 96 % of control; (dose: 200.0 mg/kg/injection, schedule: Q01DX009 (ip), vehicle: Klucel (hydroxypropylcellulose) (HPC)) 104 % of control.

For `O=C(N/N=C/c1ccccc1O)C(=O)Nc1ccc(F)cc1`, the T/C by setting is: under setting [10], 94 % of control; under setting [11], 92 % of control; under setting [12], 87 % of control.

With `N=C(N)n1c(N)nc2ccccc2c1=O`, the T/C reads like this: (dose: 12.0 mg/kg/injection, schedule: Q01DX005 (ip), vehicle: Klucel (hydroxypropylcellulose) (HPC)) 108 % of control; (dose: 12.5 mg/kg/injection, schedule: Q01DX005 (ip), vehicle: saline with Tween-80) 100 % of control; (dose: 25.0 mg/kg/injection, schedule: Q01DX005 (ip), vehicle: Klucel (hydroxypropylcellulose) (HPC)) 101 % of control; (dose: 25.0 mg/kg/injection, schedule: Q01DX005 (ip), vehicle: saline with Tween-80) 104 % of control; under setting [10], 121 % of control; (dose: 50.0 mg/kg/injection, schedule: Q01DX005 (ip), vehicle: saline with Tween-80) 97 % of control.

On to `C1Cc2[nH]nc(-c3n[nH]c4c3CCC4)c2C1`, for which the T/C (dose: 60.0 mg/kg/injection, schedule: Q01DX005 (ip), vehicle: saline) is 97 % of control; the T/C (dose: 120.0 mg/kg/injection, schedule: Q01DX005 (ip), vehicle: saline) was 97 % of control; the T/C (dose: 240.0 mg/kg/injection, schedule: Q01DX005 (ip), vehicle: saline) is 97 % of control.

For the compound `CNC(=O)OCc1c(COC(=O)NC)c(-c2ccc(S(C)(=O)=O)cc2)n(C)c1C`, the T/C is, setting by setting: (dose: 12.5 mg/kg/injection, schedule: Q01DX009 (ip), vehicle: distilled water + Tween-80) 111 % of control; (dose: 50.0 mg/kg/injection, schedule: Q01DX009 (ip), vehicle: distilled water + Tween-80) 162 % of control; (dose: 100.0 mg/kg/injection, schedule: Q01DX009 (ip), vehicle: distilled water + Tween-80) 161 % of control and 180 % of control; (dose: 200.0 mg/kg/injection, schedule: Q01DX009 (ip), vehicle: distilled water + Tween-80) 198 % of control.

`CCC(C)C(NC(=O)C(N)CCCN=C(N)N)C(=O)O` (stereo not drawn) (H-Arg-Ile-OH; configuration not given here): the T/C under setting [10] is 98 % of control, the T/C under setting [11] is 100 % of control and the T/C under setting [12] is 101 % of control.

Regarding `CC(=N\N)/C(C)=N/N`, the T/C runs as follows: under setting [13], 100 % of control; under setting [14], 121 % of control.

Turning to `Nn1cnnc1SCc1ccccc1`, the T/C runs as follows: (dose: 100.0 mg/kg/injection, schedule: Q01DX001 (ip), vehicle: other) 100 % of control; (dose: 200.0 mg/kg/injection, schedule: Q01DX001 (ip), vehicle: other) 100 % of control; (dose: 400.0 mg/kg/injection, schedule: Q01DX001 (ip), vehicle: other) 100 % of control.

Take `COC(=O)C1[C@@H](C(=O)c2ccccc2)N2C=Cc3ccccc3[C@@H]2[C@H]1C(=O)OC` (some centres undefined): the T/C by setting is: (dose: 60.0 mg/kg/injection, schedule: Q01DX005 (ip), vehicle: saline + Tween-80 + alcohol) 93 % of control; (dose: 120.0 mg/kg/injection, schedule: Q01DX005 (ip), vehicle: saline + Tween-80 + alcohol) 93 % of control; (dose: 240.0 mg/kg/injection, schedule: Q01DX005 (ip), vehicle: saline + Tween-80 + alcohol) 92 % of control.

In the case of `CC1COC2(CCC(=CC(=O)O)CC2)O1` (centres undefined), the T/C (dose: 100.0 mg/kg/injection, schedule: Q01DX001 (ip), vehicle: Klucel (hydroxypropylcellulose) (HPC)) was 100 % of control; the T/C (dose: 200.0 mg/kg/injection, schedule: Q01DX001 (ip), vehicle: Klucel (hydroxypropylcellulose) (HPC)) is 102 % of control; the T/C (dose: 400.0 mg/kg/injection, schedule: Q01DX001 (ip), vehicle: Klucel (hydroxypropylcellulose) (HPC)) is 97 % of control.

As to `CCOC(=O)c1c(NC(=S)NC)sc2c1CCCC2`, the T/C runs as follows: under setting [14], 106 % of control; (dose: 100.0 mg/kg/injection, schedule: Q01DX009 (ip), vehicle: saline with Tween-80) 108 % of control; (dose: 200.0 mg/kg/injection, schedule: Q01DX009 (ip), vehicle: saline with Tween-80) 91 % of control.

In the case of `CCCCOCCOCCOCCOCCCN1C(=O)C2C3C=CC(C3)C2C1=O` (centres undefined), the T/C reads like this: under setting [10], 97 % of control; under setting [11], 100 % of control.

For `COc1ccc(C(=O)Cc2nc3nnc(NC(=O)Nc4ccc(Cl)cc4)n3[nH]c2=O)cc1`, the T/C is, setting by setting: under setting [5], 99 % of control; under setting [6], 99 % of control; under setting [7], 100 % of control.

Turning to `NC(=S)/C(N)=N/Nc1ccc(Cl)cc1`, the T/C under setting [8] was 104 % of control, the T/C under setting [9] is 103 % of control, the T/C under setting [13] is 106 % of control and the T/C under setting [14] is 116 % of control.

Regarding `CC1(C)SC(C(NC(=O)COc2ccccc2)C(=O)O)NC1C(=O)O` (centres undefined), the T/C runs as follows: under setting [4], 90 % of control; (dose: 100.0 mg/kg/injection, schedule: Q04DX003 (ip), vehicle: saline with Tween-80) 95 % of control; (dose: 200.0 mg/kg/injection, schedule: Q04DX003 (ip), vehicle: saline with Tween-80) 95 % of control.
